Article PMC4428838, “Optimization of Invasion-Specific Effects of Betulin Derivatives on Prostate Cancer Cells through Lead Development” (PLoS ONE, 2015)

Tests used:
Format in all cases: cell-based
PC3 cells = experiment: Cell morphology and actin cytoskeleton in 2D monolayer culture; conditions: PC3, 2D, 72h
Protocol: As a control, we also tested morphologies treated with the same panel of anti-invasive compounds 4, 5, 6, 16 and 20 as well as betulin (1) on PC3 cells grown in 2D monolayer cultures (S9 Fig).
Supplementary file pone.0126111.s009.tif: S9 Fig Morphologies of PC-3, LNCaP and Ep156T cells in 2D monolayer culture, exposed 72h to selected betulin derivatives. Actin cytoskeleton (filamentous or F- actin) is stained green (LifeAct), nuclei with a red dye (confocal microscope images, 40× objective, scale bar shown for each panel on the right lower corner). (TIF) Click here for additional data file.

LAPC-4 = experiment: Secondary 3D screen (spheroid size, complexity, cell death); conditions: yellow and red clusters
Text: (§1) Next, the 25 selected betulin derivatives depicted in Figs 1–3 including control compounds were again thoroughly tested across the same panel of prostate-derived cell lines already used in the preliminary, 2D high-throughput screen. The resulting dendrograms were either generated separately for each cell line (S4 Fig), combined into a single dendrogram (Fig 5A), or shown as reduced organoid sizes (area; Fig 5B).
(§2) Fig 5 Secondary 3D screens. Experimental betulin derivatives and control compounds were tested across a panel of prostate cancer lines (LNCaP, LAPC-4) and non-transformed, prostate epithelial cells (EP156T) in 3D culture. A) The dendrogram is based on three main morphological parameters and combines all data from primary and secondary 3D screens. […] B) Boxplots showing the impact of selected compounds on spheroid size (Area). Data scaling: as described in Fig 4 C) Effects of all betulin derivatives and control compounds on cell death (number of dead cells).
(§3) All 3D cultures were done in growth factor-free Matrigel Basement-membrane Matrix (Corning Inc., New York, NY, USA) using 96-well Angiogenesis μ-plates (ibidi GmbH, Munich, Germany) as described before.[38] “Sandwich” assays in short: bottom wells of cooled Angiogenesis plates were filled with 10 μL 4 mg/mL Matrigel, centrifuged for 20 min 200 g and incubated at 37°C temperature for approximately 30–60 min or until the ECM had polymerized. 1,000–1,500 cells were mixed in 2 mg/mL ECM-medium, and 20 μL of cell suspension was added in each well. The plates were centrifuged for 10 min at 100 g, or until the cells had settled on top of the lower ECM. Finally, the outer wells and side reservoirs were filled with water for humidification, and the culture plates placed into the incubator for 3–4 h or overnight. The following day, 60 μL of cell culture medium were added; refreshed every third day by carefully aspirating the medium. This “sandwich” setting allows almost unifocal alignment of cells and 3D structures in a single optical plane, thus reducing the time required for confocal stack imaging.
(§4) All control compounds were purchased from Selleck (Munich, Germany), except for staurosporine (Sigma-Aldrich, St. Louis, MO, USA) and Y-27632 (Tocris, Bristol, UK) and dissolved in dimethyl sulfoxide (DMSO) as a vehicle at 10 mM. In the primary and secondary 3D screens, experimental and control compound exposures were performed in triplicates. Four concentrations for each compound were applied (0.03, 0.1, 0.3 and 1 μM). Compound treatments were initiated four days after cell embedding, and continued for six days after which spheroids were stained and imaged.
(§5) Supplementary file pone.0126111.s004.eps: S4 Fig Secondary screens. Dendrograms for A) LNCaP, B) LAPC-4, and C) Ep156T betulin screens in 3D culture have been constructed using three main read-outs: spheroid size, spheroid complexity, and cell death. […] (EPS) Click here for additional data file.

PC-3 cells = experiment: Primary 3D screen in Matrigel ECM, morphometric image analysis (AMIDA) of invasion, growth and cell death; conditions: PC-3 in 3D Matrigel; for anti-invasive effects in 3D culture (in words): 0.03-1 μM
Protocol: Three standard of care compounds widely used against PrCa were added as controls; namely, the androgen receptor antagonist enzalutamide (MDV3100), the C17α-hydroxylase/C17,20-lyase inhibitor abiraterone (Zytiga), and the classic mitotic inhibitor paclitaxel. Treatments started at day 4, when well-differentiated round acini were established.
The live 3D cell cultures were then stained with reactive dyes Calcein AM to detect living, and ethidium homodimer to detect dead cells. Images (Fig 4A) were acquired with confocal microscope and image data were analyzed with the AMIDA software. The principles of morphometric image analysis are briefly outlined in S2 Fig.
Fig 4 Primary 3D screen. PC-3 cells were cultured in 3D Matrigel ECM for 4 days and treated for 6 days with 25 betulin derivatives (from 2D high throughput screens), DMSO/vehicle control, and three reference compounds. A) Representative maximum intensity projections of confocal microscope stack images for selected compound treatments at 300 nM concentration (5× objective, scale 100 μm). B) Three graphs showing the relative impact on three morphometric parameters for 7 betulin derivatives, DMSO control, and one control compound (paclitaxel). […] C) Hierarchical clustering was done using three morphological parameters derived from PC3 organoids: spheroid size (area), complexity and the number of dead cells. D) Wound healing curves of the two betulin derivatives 4 and 20, highlighting the 50% cut-off level (orange dashed line).
Next, statistical analyses were performed to interpret the complex image data (Fig 4B and 4C). For simplicity, we focused on only three, basic morphologic parameters from the multiparametric AMIDA readout (Fig 4B): 1) Area (indicating growth of organoids), 2) structural Complexity (as a measure of the intensity of invasion), and 3) Relative Area of dead cells within organoids (red signal as a measure of cytoxicity or apoptosis). Area (Size of organoids; Fig 4B, upper panel) was measured as the number of pixels within a segmented structure. […] Shape Complexity (Fig 4B, middle panel) was obtained using the structure size (area) and perimeter (number of border pixels). The more regular the shape of an organoid, the closer it is to a perfect circle, thus minimizing the perimeter relative to object size. […] Deviations from this average (residuals) were interpreted as a measure for the shape complexity of organoids. As a logical lower limit for this measure (represented by a perfect circle), we adjusted the intercept (height level) of the regression line to render all returned residuals as positive numbers.
All 3D cultures were done in growth factor-free Matrigel Basement-membrane Matrix (Corning Inc., New York, NY, USA) using 96-well Angiogenesis μ-plates (ibidi GmbH, Munich, Germany) as described before.[38] “Sandwich” assays in short: bottom wells of cooled Angiogenesis plates were filled with 10 μL 4 mg/mL Matrigel, centrifuged for 20 min 200 g and incubated at 37°C temperature for approximately 30–60 min or until the ECM had polymerized. 1,000–1,500 cells were mixed in 2 mg/mL ECM-medium, and 20 μL of cell suspension was added in each well. The plates were centrifuged for 10 min at 100 g, or until the cells had settled on top of the lower ECM. Finally, the outer wells and side reservoirs were filled with water for humidification, and the culture plates placed into the incubator for 3–4 h or overnight. The following day, 60 μL of cell culture medium were added; refreshed every third day by carefully aspirating the medium.

[1] = tested on: actin cytoskeleton of PC-3, LNCaP and Ep156T spheroids; experiment: F-actin cytoskeleton (phalloidin staining) in 3D spheroids; conditions: after 48 hours of exposure; seen in Ep156T acini and PC-3 spheroids, not LNCaP
Text: […] […] For phenotypic comparisons, we tested a panel of reference compounds targeting Akt, Rac, ROCK, Src, and other pathways, broadly linked to the actin cytoskeleton.
Fig 8 3D morphologies of prostate spheroids, exposed to selected betulin derivatives and captured with a confocal microscope. Actin cytoskeleton (filamentous or F-actin) is stained green (phalloidin), nuclei with a red dye (confocal microscope images, 40× objective, scale bar shown for each panel on the right lower corner).

[2] = tested on: PC-3, LNCaP, LAPC-4, Ep156T; experiment: Primary and secondary 3D screens combined across the cell line panel; conditions: cell lines other than PC-3, 3D, 300 nM or lower (except compound 15)
Protocol: Fig 5 Secondary 3D screens. Experimental betulin derivatives and control compounds were tested across a panel of prostate cancer lines (LNCaP, LAPC-4) and non-transformed, prostate epithelial cells (EP156T) in 3D culture. A) The dendrogram is based on three main morphological parameters and combines all data from primary and secondary 3D screens. Effective compound treatments are indicated in red and yellow, yellow being the most invasion-specific. B) Boxplots showing the impact of selected compounds on spheroid size (Area). Data scaling: as described in Fig 4 C) Effects of all betulin derivatives and control compounds on cell death (number of dead cells).
In order to assist functional categorization of our betulin derivatives, we combined all data into a single dendrogram, shown in Fig 5A. In addition, multiparametric representation of all experimental data as a single heatmap is highly informative (S5 Fig) and a potent way to illustrate the effects of compounds on growth, structural complexity and cell death across multiple cell lines. […] However, at lower concentrations, these compounds may act as potent and specific inhibitors of cell invasion and motility.
Supplementary file pone.0126111.s005.eps: S5 Fig Primary and secondary screens. […] The main read-outs (Area = Size, Complexity = Invasiveness, Red = Cell death) are shown in their own columns. Data scaling: DMSO control has been given a value 0 whereas paclitaxel control is valued -100 or 100 depending on the read-out. Color key is located in the upper right corner. (EPS) Click here for additional data file.
Supplementary file pone.0126111.s006.tif: S6 Fig Confocal images from primary and secondary betulin screens. Viable cells have been stained with calcein AM (green) and dead cells with ethidium homodimer-2 (red) (5× objective, maximum intensity projections, scale bar = 100 μm). (TIF) Click here for additional data file.

Ep156T cell line = experiment: Secondary 3D screen (spheroid size, complexity, cell death); conditions: at the highest concentration
Text: as §1, §2, §3, §4, §5

PC-3 = experiment: Wound healing assay in 2D monolayer culture (IncuCyte); conditions: example for inactive derivatives
Protocol: Cells were cultured on ImageLock plates (Essen Bioscience, Ann Arbor, MI, USA) until fully confluent and scratched with a WoundMaker instrument (Essen Bioscience). All detached cells were removed by aspiration and medium supplemented with experimental compounds was added. Wound closure was monitored and quantified with the IncuCyte live-cell imager (Essen Bioscience).
A) Graph showing the transition of PC-3 spheroids from symmetrical acini to irregular invasive structures over 6 days, as measured by general symmetry (roundness %). […] B) Conventional wound healing assay performed in monolayer culture over a period of 64 hours. Wound closure is measured as relative wound density i.e. percentage of original wound area reclaimed by migrating cells. […] (EPS) Click here for additional data file.

| SMILES | morphology and actin cytoskeleton of cells in 2D monolayer (PC3 cells) | efficacy in 3D LAPC-4 culture (dendrogram clusters) (LAPC-4) | anti-invasive effects in 3D culture (in words) (PC-3 cells; 6 days treatment) | further results |
| --- | --- | --- | --- | --- |
| Oc1ccc2ccccc2c1SSc1c(O)ccc2ccccc12 [IPA3, reference compound] | clear rounding | – | – | – |
| C=C(C)[C@@H]1CC[C@]2(C(N)=O)CC[C@]3(C)C(CCC4[C@@]5(C)Cc6nccnc6C(C)(C)C5CC[C@]43C)C12 (some centres unmarked) [Compound 16] | No morphologies and visible effects on the actin cytoskeleton | most active | same high level of anti-invasive effects as compound 15 | concentration at which anti-invasive effects are seen in 3D (PC-3 cells; 6 days treatment): 100 nM |
| C=C(C)[C@@H]1CC[C@]2(C(=O)O)CC[C@]3(C)[C@H](CC[C@@H]4[C@@]5(C)CC[C@H](O)C(C)(C)[C@@H]5CC[C@]43C)[C@@H]12 [Compound 1, betulinic acid] | No morphologies and visible effects on the actin cytoskeleton | – | did not show significant anti-invasive effects | – |
| C=C(C)[C@@H]1CC[C@]2(C(=O)O)CC[C@]3(C)C(CCC4[C@@]5(C)Cc6nccnc6C(C)(C)C5CC[C@]43C)C12 (some centres unmarked) [Compound 15] | – | – | most potent anti-invasive effects | organization of actin cytoskeleton in 3D spheroids [1]: effectively disrupted the organization of actin cytoskeleton; effects on the other cell lines at anti-invasive concentrations [2]: no noticeable effects on the other cell lines; concentration with strong anti-invasive effects in 3D (PC-3 cells; 6 days treatment): 1.0 µM; growth inhibition in 3D (PC-3 cells; at 1.0 μM): without any growth inhibition |
| C=C(C)[C@@H]1CC[C@]2(C(=O)O)CC[C@]3(C)C(CCC4[C@@]5(C)CCC(=O)C(C)(C)C5CC[C@]43C)C12 (some centres unmarked) [Compound 2, betulonic acid] | – | – | did not show significant anti-invasive effects | response of Ep156T in 3D culture (Ep156T cell line): responded to betulonic acid |
| CN[C@@H]1C[C@H]2O[C@@](C)([C@@H]1OC)n1c3ccccc3c3c4c(c5c6ccccc6n2c5c31)C(=O)NC4 [staurosporine, reference compound] | – | – | – | organization of actin cytoskeleton in 3D spheroids [1]: affected the cytoskeleton in a comparable fashion |
| C=C(C)[C@@H]1CC[C@]2(C(=O)N3CCCCC3)CC[C@]3(C)C(CCC4[C@@]5(C)CC[C@H](O)C(C)(C)C5CC[C@]43C)C12 (some centres unmarked) [Compound 21] | – | – | – | activity in validation (wound healing) in words (PC-3): inactive |
| C[C@]12CC[C@H](O)CC1=CC[C@@H]1[C@@H]2CC[C@]2(C)C(c3cccnc3)=CC[C@@H]12 [abiraterone, reference compound] | – | efficacy of all positive controls | – | effect on morphometric measures (area, complexity, dead cells) (PC-3 cells; paclitaxel at 30 and 100 nM): no noticeable effect |
| CC(C)[C@@H]1CC[C@]2(C(=O)O)CC[C@]3(C)C(CCC4[C@@]5(C)CCC(=O)C(C)(C)C5CC[C@]43C)C12 (some centres unmarked) [Compound 3] | – | most active | one of the most potent anti-invasive, growth inhibitory agents | effects on the other cell lines at anti-invasive concentrations [2]: no noticeable effects on the other cell lines; concentration at which anti-invasive effects are seen in 3D (PC-3 cells; 6 days treatment): ≤ 300 nM |
| C[C@@H](N)[C@H]1CC[C@H](C(=O)Nc2ccncc2)CC1 [Compound Y-27632, reference compound] | elongation | – | – | – |
